Data on 12 molecules can be found in patent US9765056B2, “Indole and pyrrole compounds, a process for their preparation and pharmaceutical compositions containing them” (LES LABORATOIRES SERVIER, priority 2013, dated 2017).

Assay [1] has as its system RS4;11 leukaemia tumour line. Description: In vitro cytotoxicity, Microculture Tetrazolium Assay (MTT). The assay is classed as cell-based. The following applies: Homo sapiens; RS4;11 cells, 48 hours exposure. How it is done:
The cytotoxicity studies were carried out on the RS4;11 leukaemia tumour line.
The cells are distributed onto microplates and exposed to the test compounds for 48 hours. The cell viability is then quantified by a colorimetric assay, the Microculture Tetrazolium Assay (Cancer Res., 1987, 47, 939-942).

In assay [2] the test system is cleaved form of caspase 3. Description: Quantification of the cleaved form of caspase 3 in vivo (MSD ELISA) in RS4;11 xenograft tumour lysates. Set-up: species or system mice (SCID strain). The following applies: oral route. How it is done: Quantification of the Cleaved Form of Caspase 3 In Vivo
The ability of the compounds of the invention to activate caspase 3 is evaluated in a xenograft model of RS4;11 leukaemia cells.
1×10^7 RS4;11 cells are grafted subcutaneously into immunosuppressed mice (SCID strain). 25 to 30 days after the graft, the animals are treated orally with the various compounds. After treatment, the tumour masses are recovered (after a time period T) and lysed, and the cleaved (activated) form of caspase 3 is quantified in the tumour lysates.
This quantification is carried out using the “Meso Scale Discovery (MSD) ELISA platform” test, which specifically assays the cleaved form of caspase 3. It is expressed in the form of an activation factor corresponding to the ratio between the quantity of cleaved caspase 3 in the treated mice divided by the quantity of cleaved caspase 3 in the control mice.
In general terms: In an ELISA, binding on a coated surface is turned into a signal by an enzyme label.

For assay [3], the target named is Bcl-2 protein (histag-Bcl-2, UniProtKB P10415) (Homo sapiens (Human), UniProt P10415). As to the kind of experiment: Inhibition of Bcl-2 by the fluorescence polarisation technique. The assay is classed as binding. The following applies: fluorescence polarisation test; method A, or method B where underlined (underlining not visible); read-out: IC50 (nM) Bcl-2 FP. From the text: Inhibition of Bcl-2 by the fluorescence polarisation technique

Where [4] appears, read: 25 mg/kg, tumour removed after 2 h.

Counter-ions that a name gives are not always drawn.

Bcl-2 protein, sequence (P10415 whole entry): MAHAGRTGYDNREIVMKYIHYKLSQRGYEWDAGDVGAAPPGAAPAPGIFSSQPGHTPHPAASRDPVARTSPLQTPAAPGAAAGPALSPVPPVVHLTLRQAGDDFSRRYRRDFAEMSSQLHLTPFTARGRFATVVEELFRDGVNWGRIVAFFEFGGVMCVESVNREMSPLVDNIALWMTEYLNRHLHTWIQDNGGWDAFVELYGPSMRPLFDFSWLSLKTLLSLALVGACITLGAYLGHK

One may read the IC50 as the concentration that inhibits the measured activity by half. On to `Cl.O=C(c1cn(-c2cc3c(cc2C(=O)N2Cc4ccccc4C[C@H]2CN2CCOCC2)OCO3)c2ccccc12)N(c1ccccc1)c1ccc(O)cc1` [Example 184, N-(4-Hydroxyphenyl)-1-{6-[(3S)-3-(morpholin-4-ylmethyl)-1,2,3,4-tetrahydroisoquinoline-2-carbonyl]-2H-1,3-benzodioxol-5-yl}-N-phenyl-1H-indole-3-carboxamide hydrochloride], for which the results for the IC50 in assay [1] and in assay [3] were 154 nM and 14.1 nM, respectively. Besides, in assay [2] (100 mg/kg, tumour removed after 16 h), the “Activation factor ± SEM (versus control), cleaved caspase 3 MSD test” value (shortened to “Activation factor ± SEM (versus control)”) turned out to be 15.1.
As to `Cl.Cn1ccc2cc(N(C(=O)c3cn(-c4cc5c(cc4C(=O)N4Cc6ccccc6C[C@H]4CN4CCOCC4)OCO5)c4c3CCCC4)c3ccc(O)cc3)cnc21` [Example 207, N-(4-Hydroxyphenyl)-N-(1-methyl-1H-pyrrolo[2,3-b]pyridin-5-yl)-1-(6-{[(3S)-3-(morpholin-4-ylmethyl)-3,4-dihydroisoquinolin-2(1H)-yl]carbonyl}-1,3-benzodioxol-5-yl)-4,5,6,7-tetrahydro-1H-indole-3-carboxamide hydrochloride], the IC50 was found to be 22.2 nM in assay [1] and 20.3 nM in assay [3]. Further, the “Activation factor ± SEM (versus control)” value in assay [2] (setting [4]) stood at 14.6 ± 4.4.
For `Cc1c(C(=O)N(c2ccc(O)cc2)c2cc(C#N)n(C)c2C)cn(-c2cc(Cl)ccc2C(=O)N2Cc3ccccc3C[C@H]2CN2CCOCC2)c1C.Cl` [Example 211, 1-(5-Chloro-2-{[(3S)-3-(morpholin-4-ylmethyl)-3,4-dihydroisoquinolin-2(1H)-yl]carbonyl}phenyl)-N-(5-cyano-1,2-dimethyl-1H-pyrrol-3-yl)-N-(4-hydroxyphenyl)-4,5-dimethyl-1H-pyrrole-3-carboxamide hydrochloride] the same measures were 46.9 nM, 3.7 nM and 94.7 ± 9.8.
In the case of `Cc1c(C(=O)N(c2ccc(O)cc2)c2cnc3c(c2)CCN3C)cn(-c2cc(Cl)ccc2C(=O)N2Cc3ccccc3C[C@H]2CN2CCOCC2)c1C.Cl` [Example 210, 1-(5-Chloro-2-{[(3S)-3-(morpholin-4-ylmethyl)-3,4-dihydroisoquinolin-2(1H)-yl]carbonyl}phenyl)-N-(4-hydroxyphenyl)-4,5-dimethyl-N-(1-methyl-2,3-dihydro-1H-pyrrolo[2,3-b]pyridin-5-yl)-1H-pyrrole-3-carboxamide hydrochloride], the IC50 in assay [1] came to 64.7 nM; in assay [3], 3.1 nM. Also, the “Activation factor ± SEM (versus control)” value in assay [2] (125 mg/kg, tumour removed after 2 h) is 36.3 ± 13.3.
`CN1CCN(C[C@@H]2Cc3ccccc3CN2C(=O)c2cc3c(cc2-n2cc(C(=O)N(CCc4ccccc4)c4ccc(Cl)cc4)c4ccccc42)OCO3)CC1` [Example 36, N-(4-Chlorophenyl)-1-(6-{[(3S)-3-[(4-methylpiperazin-1-yl)methyl]-3,4-dihydroisoquinolin-2(1H)-yl]carbonyl}-1,3-benzodioxol-5-yl)-N-(2-phenylethyl)-1H-indole-3-carboxamide]: the IC50 was 2420 nM in assay [1] and 1110 nM in assay [3].
On the same counts, the results for `Cc1cc(C(=O)N(c2ccc(O)cc2)c2ccc3[nH]ccc3c2)cn1-c1ccccc1C(=O)N1Cc2ccccc2C[C@H]1CN(C)C` [Example 23, 1-(2-{[(3S)-3-[(Dimethylamino)methyl]-3,4-dihydroisoquinolin-2(1H)-yl]carbonyl}phenyl)-N-(4-hydroxyphenyl)-N-(1H-indol-5-yl)-5-methyl-1H-pyrrole-3-carboxamide] are 445 nM and 26.1 nM.
For `Cc1cc(C(=O)N(c2ccc(O)cc2)c2ccc3c(ccn3C)c2)cn1-c1cc(Cl)c(F)cc1C(=O)N1Cc2ccccc2C[C@H]1CN1CCN(C)CC1` [Example 77, 1-(5-Chloro-4-fluoro-2-{[(3S)-3-[(4-methylpiperazin-1-yl)methyl]-3,4-dihydroisoquinolin-2(1H)-yl]carbonyl}phenyl)-N-(4-hydroxyphenyl)-5-methyl-N-(1-methyl-1H-indol-5-yl)-1H-pyrrole-3-carboxamide hydrochloride] the same measures were 207 nM and 4.9 nM.
`COc1cc(-n2cc(C(=O)N(c3ccccc3)c3ccc(O)cc3)c3ccccc32)c(C(=O)N2Cc3ccccc3C[C@H]2CN2CCN(C)CC2)cc1O` [Example 165, 1-{4-Hydroxy-5-methoxy-2-[(3S)-3-[(4-methylpiperazin-1-yl)methyl]-1,2,3,4-tetrahydroisoquinoline-2-carbonyl}phenyl]-N-(4-hydroxyphenyl)-N-phenyl-1H-indole-3-carboxamide dihydrochloride]: the values for the IC50 in assay [1] and in assay [3] were 179 nM and 3.2 nM, respectively.
For `Cc1ccc(N(C(=O)c2cn(-c3cc(Br)ccc3C(=O)N3Cc4ccccc4C[C@H]3CN3CCN(C)CC3)c3ccccc23)c2ccc(O)cc2)cc1` [Example 57, 1-(5-Bromo-2-{[(3S)-3-[(4-methylpiperazin-1-yl)methyl]-3,4-dihydroisoquinolin-2(1H)-yl]carbonyl}phenyl)-N-(4-hydroxyphenyl)-N-(4-methylphenyl)-1H-indole-3-carboxamide] the same measures were 267 nM and 13.4 nM.
Turning to `COc1cc(C(=O)N2Cc3ccccc3C[C@H]2CN2CCN(C)CC2)c(-n2cc(C(=O)N(c3ccccc3)c3ccc(O)cc3)c3ccccc32)cc1Cl` [Example 167, 1-{5-Chloro-4-methoxy-2-[(3S)-3-[(4-methylpiperazin-1-yl)methyl]-1,2,3,4-tetrahydroisoquinoline-2-carbonyl]phenyl}-N-(4-hydroxyphenyl)-N-phenyl-1H-indole-3-carboxamide], the IC50 in assay [1] is 984 nM; in assay [3], 37.4 nM.
On the same counts, the results for `Cc1c(C(=O)N(c2ccc(O)cc2)c2cnc3c(ccn3C)c2)cn(-c2cc(Cl)ccc2C(=O)N2Cc3ccccc3C[C@H]2CN2CCOCC2)c1C` [Example 209, 1-(5-Chloro-2-{[(3S)-3-(morpholin-4-ylmethyl)-3,4-dihydroisoquinolin-2(1H)-yl]carbonyl}phenyl)-N-(4-hydroxyphenyl)-4,5-dimethyl-N-(1-methyl-1H-pyrrolo[2,3-b]pyridin-5-yl)-1H-pyrrole-3-carboxamide hydrochloride] are 62.9 nM and 4.1 nM.
For `Cc1cc(C(=O)N(c2ccc(O)cc2)c2ccc3[nH]ccc3c2)cn1-c1cc(Br)ccc1C(=O)N1Cc2ccccc2C[C@H]1C(=O)N1CCN(C)CC1` [Example 101, 1-(5-Bromo-2-{[(3S)-3-[(4-methylpiperazin-1-yl)carbonyl]-3,4-dihydroisoquinolin-2(1H)-yl]carbonyl}phenyl)-N-(4-hydroxyphenyl)-N-(1H-indol-5-yl)-5-methyl-1H-pyrrole-3-carboxamide], the IC50 was found to be 1880 nM in assay [1] and 99.1 nM in assay [3].
